From ChEMBL document CHEMBL6083204, “Synthesis of a celastrol derivative as a cancer stem cell inhibitor through regulation of the STAT3 pathway for treatment of ovarian cancer” (RSC Med Chem, 2024)
Active and inactive are the calls of the source. The rule behind the calls is not given here.

Experiments:
A2780 [1] = test: Induction of apoptosis in human A2780 cells assessed as late apoptotic cells at 0.8 uM incubated for 24 hrs by Annexin V-FITC/7-AAD staining based flow cytometry (reference value: 2.1 %); assay type: functional
Mitochondrial membrane [2] = test: Induction of mitochondrial membrane potential loss in human SK-OV-3 cells at 0.2 uM incubated for 24 hrs by JC-1 staining based flow cytometry (reference value: 73.6 %)
SK-OV-3 [3] = test: Induction of cell cycle arrest in human SK-OV-3 cells assessed as accumulation of cells at G0/G1 phase at 0.2 uM incubated for 24 hrs by BrdU staining based flow cytometry (reference value: 59.8 %); assay type: functional
SK-OV-3 [4] = test: Induction of cell cycle arrest in human SK-OV-3 cells assessed as reduction of CDK4 expression at 0.2 uM incubated for 24 hrs by flow cytometry (reference value: 66.8 %); assay type: functional; set-up: scale not given: the % may be the effect or the level left
[5] = target: Signal transducer and activator of transcription 3 (Homo sapiens) (UniProt P40763); test: Inhibition of STAT3 in human SK-OV-3 cells assessed as downregulation of STAT3 expression in nuclei at 0.2 uM incubated for 24 hrs by Hoechst33342 staining based immunofluorescence assay; assay type: cell-based
Signal transducer and activator of transcription 3 (Homo sapiens), sequence (P40763 whole entry): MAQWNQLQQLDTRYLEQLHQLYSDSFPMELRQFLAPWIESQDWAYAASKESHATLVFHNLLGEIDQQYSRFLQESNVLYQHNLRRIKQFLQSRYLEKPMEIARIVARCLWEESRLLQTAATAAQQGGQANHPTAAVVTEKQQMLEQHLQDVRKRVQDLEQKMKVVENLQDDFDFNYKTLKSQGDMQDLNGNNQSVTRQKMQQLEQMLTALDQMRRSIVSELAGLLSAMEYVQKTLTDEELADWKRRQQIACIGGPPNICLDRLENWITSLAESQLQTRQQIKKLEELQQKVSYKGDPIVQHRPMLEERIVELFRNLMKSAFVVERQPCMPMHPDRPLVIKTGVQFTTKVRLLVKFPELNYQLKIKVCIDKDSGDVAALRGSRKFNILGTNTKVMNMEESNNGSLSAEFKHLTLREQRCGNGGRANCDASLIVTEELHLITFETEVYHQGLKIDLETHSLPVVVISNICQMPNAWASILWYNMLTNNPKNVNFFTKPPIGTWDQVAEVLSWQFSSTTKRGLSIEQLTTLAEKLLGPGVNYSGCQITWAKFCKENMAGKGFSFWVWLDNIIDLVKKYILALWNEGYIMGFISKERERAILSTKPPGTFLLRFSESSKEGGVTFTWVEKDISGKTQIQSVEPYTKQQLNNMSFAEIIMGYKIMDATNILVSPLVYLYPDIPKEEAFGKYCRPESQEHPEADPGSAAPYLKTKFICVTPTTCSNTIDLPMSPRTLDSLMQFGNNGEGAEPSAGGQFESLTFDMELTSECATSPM

[6] = target: Signal transducer and activator of transcription 3 (Homo sapiens) (UniProt P40763); test: Inhibition of STAT3 in human SK-OV-3 cells assessed as downregulation of STAT3 phosphorylation at Tyr705 residue incubated for 24 hrs by Western blotting analysis; assay type: cell-based
SK-OV-3 [7] = test: Inhibition of human SK-OV-3 cells spheroid formation assessed as reduction in spheroid size at 0.1 to 0.4 uM incubated for 10 days by inverted microscopic analysis; assay type: functional, cell-based; details: dose 0.1-0.4 µM, time 10.0 day
A2780 [8] = test: Inhibition of cell invasion in human A2780 cells incubated for 24 hrs by crystal violet staining based transwell assay; assay type: functional
SK-OV-3 [9] = test: Induction of cell cycle arrest in human SK-OV-3 cells assessed as reduction of CDK2 expression at 0.8 uM incubated for 24 hrs by flow cytometry (reference value: 94.4 %); assay type: functional; set-up: scale not given: the % may be the effect or the level left
SK-OV-3 [10] = test: Antitumor activity against human SK-OV-3 cells xenografted in BALB/c mouse assessed as reduction in tumor volume at 5 mg/kg,ip administrated for 21 consecutive days relative to control; assay type: functional; set-up: scale not given: the % may be the effect or the level left
A2780 [11] = test: Induction of cell cycle arrest in human A2780 cells assessed as reduction of Cyclin D1 expression at 0.4 uM incubated for 24 hrs by flow cytometry (reference value: 92.5 %); assay type: functional; set-up: scale not given: the % may be the effect or the level left
A2780 [12] = test: Antiproliferative activity against human A2780 cells assessed as inhibition of cell growth incubated for 72 hrs by MTT assay; assay type: functional, cell-based; details: A2780, 72 h
SK-OV-3 [13] = test: Induction of cell cycle arrest in human SK-OV-3 cells assessed as accumulation of cells at S phase at 0.4 uM incubated for 24 hrs by BrdU staining based flow cytometry (reference value: 33.6 %); assay type: functional
[14] = target: Signal transducer and activator of transcription 3 (Homo sapiens) (UniProt P40763); test: Inhibition of STAT3 in human A2780 cells assessed as downregulation of STAT3 expression in nuclei at 0.2 uM incubated for 24 hrs by Hoechst33342 staining based immunofluorescence assay; assay type: cell-based
SK-OV-3 [15] = test: Induction of apoptosis in human SK-OV-3 cells assessed as early apoptotic cells at 0.8 uM incubated for 24 hrs by Annexin V-FITC/7-AAD staining based flow cytometry (reference value: 1.6 %); assay type: functional
A2780 [16] = test: Induction of apoptosis in human A2780 cells assessed as increase in caspase-8 activity at 0.8 uM incubated for 24 hrs by flow cytometry (reference value: 1.2 %); assay type: functional
[17] = target: Signal transducer and activator of transcription 3 (Homo sapiens) (UniProt P40763); test: Inhibition of STAT3 in human A2780 cells assessed as downregulation of STAT3 phosphorylation at Ser727 residue in nuclei at 0.2 uM incubated for 24 hrs by Hoechst33342 staining based immunofluorescence assay; assay type: cell-based
[18] = target: Signal transducer and activator of transcription 3 (Homo sapiens) (UniProt P40763); test: Inhibition of STAT3 in human SK-OV-3 cells assessed as downregulation of cytoplasmic STAT3 expression at 0.2 uM incubated for 24 hrs by Hoechst33342 staining based immunofluorescence assay; assay type: cell-based
Mitochondrial membrane [19] = test: Induction of mitochondrial membrane potential loss in human SK-OV-3 cells at 0.1 uM incubated for 24 hrs by JC-1 staining based flow cytometry (reference value: 73.6 %)
[20] = target: Signal transducer and activator of transcription 3 (Homo sapiens) (UniProt P40763); test: Inhibition of STAT3 in human SK-OV-3 cells assessed as downregulation of total STAT3 expression incubated for 24 hrs by Western blotting analysis; assay type: cell-based
A2780 [21] = test: Induction of apoptosis in human A2780 cells assessed as viable cells at 0.8 uM incubated for 24 hrs by Annexin V-FITC/7-AAD staining based flow cytometry (reference value: 95 %); assay type: functional; details: read-out: Activity
A2780 [22] = test: Antiproliferative activity against human A2780 cells assessed as decrease in ALDH positive cells at 0.4 uM incubated for 24 hrs by ALDEFLUOR staining based flow cytometry (reference value: 32.5 %); assay type: functional; set-up: scale not given: the % may be the effect or the level left
SK-OV-3 [23] = test: Induction of apoptosis in human SK-OV-3 cells assessed as necrotic cells at 0.8 uM incubated for 24 hrs by Annexin V-FITC/7-AAD staining based flow cytometry (reference value: 0.6 %); assay type: functional
A2780 [24] = test: Induction of cell cycle arrest in human A2780 cells assessed as accumulation of cells at G2/M phase at 0.8 uM incubated for 24 hrs by BrdU staining based flow cytometry (reference value: 6.2 %); assay type: functional
A2780 [25] = test: Induction of apoptosis in human A2780 cells assessed as early apoptotic cells at 0.2 uM incubated for 24 hrs by Annexin V-FITC/7-AAD staining based flow cytometry (reference value: 1.9 %); assay type: functional
SK-OV-3 [26] = test: Induction of apoptosis in human SK-OV-3 cells assessed as late apoptotic cells at 0.8 uM incubated for 24 hrs by Annexin V-FITC/7-AAD staining based flow cytometry (reference value: 3.7 %); assay type: functional
[27] = target: Signal transducer and activator of transcription 3 (Homo sapiens) (UniProt P40763); test: Inhibition of STAT3 in human SK-OV-3 cells assessed as downregulation of cytoplasmic STAT3 phosphorylation at Tyr705 residue at 0.2 uM incubated for 24 hrs by Hoechst33342 staining based immunofluorescence assay; assay type: cell-based
A2780 [28] = test: Induction of apoptosis in human A2780 cells assessed as early apoptotic cells at 0.4 uM incubated for 24 hrs by Annexin V-FITC/7-AAD staining based flow cytometry (reference value: 1.9 %); assay type: functional
A2780 [29] = test: Induction of cell cycle arrest in human A2780 cells assessed as accumulation of cells at S phase at 0.8 uM incubated for 24 hrs by BrdU staining based flow cytometry (reference value: 51.6 %); assay type: functional
Mitochondrial membrane [30] = test: Induction of mitochondrial membrane potential loss in human A2780 cells at 0.4 uM incubated for 24 hrs by JC-1 staining based flow cytometry (reference value: 81 %)
[31] = target: Tyrosine-protein kinase JAK2 (Homo sapiens) (UniProt O60674); test: Inhibition of JAK2 in human SK-OV-3 cells assessed as downregulation of JAK2 phosphorylation at 0.1 to 0.4 uM incubated for 24 hrs by Western blotting analysis; assay type: cell-based; details: dose 0.1-0.4 µM
Tyrosine-protein kinase JAK2 (Homo sapiens), sequence (O60674 whole entry): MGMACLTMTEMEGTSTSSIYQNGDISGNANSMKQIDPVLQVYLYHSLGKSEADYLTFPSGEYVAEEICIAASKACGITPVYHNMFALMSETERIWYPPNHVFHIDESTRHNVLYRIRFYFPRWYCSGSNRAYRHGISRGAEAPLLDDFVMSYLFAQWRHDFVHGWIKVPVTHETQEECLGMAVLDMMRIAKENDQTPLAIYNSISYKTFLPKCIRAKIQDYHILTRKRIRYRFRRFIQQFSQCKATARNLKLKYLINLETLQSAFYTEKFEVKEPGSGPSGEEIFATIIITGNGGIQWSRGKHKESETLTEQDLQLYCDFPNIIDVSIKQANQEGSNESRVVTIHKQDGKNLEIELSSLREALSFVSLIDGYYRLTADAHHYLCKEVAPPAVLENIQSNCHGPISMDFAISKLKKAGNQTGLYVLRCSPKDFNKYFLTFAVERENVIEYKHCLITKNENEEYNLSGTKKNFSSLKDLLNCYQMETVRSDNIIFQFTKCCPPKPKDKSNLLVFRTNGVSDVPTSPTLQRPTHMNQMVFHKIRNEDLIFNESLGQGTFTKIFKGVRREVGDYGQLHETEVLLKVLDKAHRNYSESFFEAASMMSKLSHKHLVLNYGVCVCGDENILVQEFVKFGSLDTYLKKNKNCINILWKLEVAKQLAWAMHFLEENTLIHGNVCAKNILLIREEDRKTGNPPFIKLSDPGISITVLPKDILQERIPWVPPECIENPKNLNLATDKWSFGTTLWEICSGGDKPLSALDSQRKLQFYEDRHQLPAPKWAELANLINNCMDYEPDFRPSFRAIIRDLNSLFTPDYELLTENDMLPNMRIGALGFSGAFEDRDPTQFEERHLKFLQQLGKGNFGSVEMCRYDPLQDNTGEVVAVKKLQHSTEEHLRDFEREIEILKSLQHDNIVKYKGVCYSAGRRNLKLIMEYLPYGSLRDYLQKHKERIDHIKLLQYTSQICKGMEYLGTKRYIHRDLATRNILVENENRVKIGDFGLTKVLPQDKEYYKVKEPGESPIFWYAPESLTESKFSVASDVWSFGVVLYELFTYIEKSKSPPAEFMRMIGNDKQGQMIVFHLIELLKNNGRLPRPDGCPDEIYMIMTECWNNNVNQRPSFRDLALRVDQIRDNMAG

A2780 [32] = test: Induction of apoptosis in human A2780 cells assessed as increase in caspase-3 activity at 0.2 uM incubated for 24 hrs by flow cytometry (reference value: 1.5 %); assay type: functional
SK-OV-3 [33] = test: Induction of cell cycle arrest in human SK-OV-3 cells assessed as reduction of CDK4 expression at 0.4 uM incubated for 24 hrs by flow cytometry (reference value: 66.8 %); assay type: functional; set-up: scale not given: the % may be the effect or the level left

CC1=C(O)C(=O)C=C2C1=CC=C1[C@@]2(C)CC[C@@]2(C)[C@@H]3C[C@](C)(C(=O)N4CCNCC4)CC[C@]3(C)CC[C@]12C was tested, and the Activity (A2780 [1]) was 66.7%, the Activity (Mitochondrial membrane [2]) was 49.6% and the Activity (SK-OV-3 [3]) was 59.2%. For the same compound, the Activity (SK-OV-3 [4]) was 67%, the inhibition [5] was “Active” and the inhibition [6] was “Dose-dependent-effect”. The inhibition (SK-OV-3 [7]) was “Active”, the inhibition (A2780 [8]) was “Dose-dependent-effect” and the Activity (SK-OV-3 [9]) was 57.5%. The Activity (SK-OV-3 [10]) was 74.58%, the Activity (A2780 [11]) was 67.7% and the IC50 (A2780 [12]) was 0.14 µM. The Activity (SK-OV-3 [13]) was 42.9%, the inhibition [14] was “Active” and the Activity (SK-OV-3 [15]) was 33.2%. The Activity (A2780 [16]) was 12%, the inhibition [17] was “Active” and the inhibition [18] was “Active; Showed Mild Inhibition Activity”. For the same compound, the Activity (Mitochondrial membrane [19]) was 70.7%, the inhibition [20] was “Dose-dependent-effect” and the viability at 0.8 µM (A2780 [21]) was 24.5%. For the same compound, the Activity (A2780 [22]) was 0.37%, the Activity (SK-OV-3 [23]) was 1.4% and the Activity (A2780 [24]) was 24.3%. The Activity (A2780 [25]) was 4.4%, the Activity (SK-OV-3 [26]) was 17.4% and the inhibition [27] was “Active; Showed Mild Inhibition Activity”. It also gave an Activity (A2780 [28]) of 7.4%, an Activity (A2780 [29]) of 6.2% and an Activity (Mitochondrial membrane [30]) of 49.5%. For the same compound, the inhibition [31] was “Active”, the Activity (A2780 [32]) was 3.7% and the Activity (SK-OV-3 [33]) was 70.6%.
